According to PMC9973260, “Emergence of an Auxin Sensing Domain in Plant-Associated Bacteria” (mBio, 2023):

Key:
AdmX-LBD [1] = target: T1, AdmX-LBD (Serratia plymuthica, UniProt P0DV33, C100S); experiment: isothermal titration calorimetry; format: binding; conditions: read-out: dissociation constant
T1 construct: fast monomer-dimer equilibrium shifted toward dimer, dimer in crystal
T1 sequence (P0DV33 69-295 C100S): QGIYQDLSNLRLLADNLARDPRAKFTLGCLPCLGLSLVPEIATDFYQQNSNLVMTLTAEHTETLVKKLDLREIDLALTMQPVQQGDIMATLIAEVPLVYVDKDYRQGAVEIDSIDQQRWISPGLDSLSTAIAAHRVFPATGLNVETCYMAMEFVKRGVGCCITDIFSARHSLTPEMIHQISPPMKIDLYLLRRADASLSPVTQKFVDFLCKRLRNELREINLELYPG

AdmX-LBD [2] = target: T2, AdmX-LBD (Serratia plymuthica, UniProt P0DV33, E213Q); experiment: isothermal titration calorimetry; format: binding; conditions: read-out: dissociation constant
T2 construct: fast monomer-dimer equilibrium shifted toward dimer, dimer in crystal
T2 sequence (P0DV33 69-295 E213Q): T1 sequence (P0DV33 69-295 C100S)

Row | Structure (SMILES) | Kd (AdmX-LBD [1]) [µM] | Kd (AdmX-LBD [2]) [µM]
1 | O=C(O)Cc1c[nH]c2ccccc12 [indole-3-acetic acid] | 51 ± 3.4 | 23.9 ± 2.4
2 | O=C(O)C(=O)Cc1c[nH]c2ccccc12 [indole-3-pyruvic acid] | 31.5 ± 1.6 | 6 ± 0.7
